# Laboratory results reported in patent publication US20250275938A1, “COMPOSITIONS AND METHODS FOR TREATMENT OF CANCER” (SCIROSBIO (FZC), priority 2022, published 2025).
# Experiments:
# [1] = system: intracellular ROS in U87MG cells; test: ROS activity by DCF-DA, U87MG; format: cell-based, human; details: IC50 concentrations, vs control
# Protocol: Determination of ROS activity by DCF-DA. U87MG and C6 cells were seeded at 5×10^3 cells/well in 96 well plates. […] After the treatment period, monolayer cells were stained with DCF-DA stain, and the absorbance was read at 530 nm spectrophotometrically (Molecular Devices Spectra-Max M5, USA). This method is commonly used in ROS investigations and is based on the application of H2DCFDA (acetylated form of DCF), which is consecutively deacetylated inside the cells by intracellular esterase.
# U87MG glioma cells = test: Quantitative RT-PCR gene expression, U87MG; format: cell-based, human
# Protocol: (§1) Quantitative RT-PCR analysis of antioxidant enzymes (SOD and CAT), oxidative stress marker (Nrf-2), and apoptosis markers (BCL2 and Caspase-9). Total RNA from all experimental groups was isolated using RNA Express reagent (HiMedia, India) and the respective cDNAs were synthesized using a Hi-c-DNA Synthesis Kit (HiMedia, India). Quantitative RT-PCR was carried out using a CFX 96 thermocycler (Bio-Rad, Hercules, CA) and TB Green Premix Ex Taq 1 (Takara Bio, Otsu, Japan) to detect mRNA. Independent experiments were conducted in triplicate. The cycle threshold (Ct), representing a positive PCR result, is defined as the cycle number at which a sample's fluorescence intensity crossed the threshold automatically determined by the CFX 96.
# (§2) The relative changes in gene expression were calculated with the 2^−ΔΔCt method, wherein ΔΔCt=(Cttarget gene−Ctβ-actin) sample−([…]) calibrator.
# (§3) The qPCR analyses were performed to measure the expression levels of genes associated with anti-Warburg effect. The total RNA was extracted from the cell lysates and brain tissues of all the experimental groups using TRIZOL reagent (Takara Bio, Shiga, Japan). Quantitative RT-PCR was carried out using a CFX96 Real Time PCR Detection System (Bio-Rad, California, USA) and TB Green Premix Ex Taq I (Takara Bio, Shiga, Japan) to detect messenger ribonucleic acid (mRNA).
# (§4) Independent experiments were conducted in triplicate. The relative changes in gene expression were calculated with the 2^−ΔΔCt method, where ΔΔCt=Sample (Cttarget gene−Ctβ-actin)−Calibrator (Cttarget gene−Ctβ-actin).
# C6 glioma cells = test: Quantitative RT-PCR gene expression, C6; format: cell-based, rat
# Protocol: as §1, §2, §3, §4
# [2] = system: human pancreatic cancer (PANC1) cells; test: MTT cell viability assay, PANC1; format: cell-based; details: 24 hours
# Protocol: Cell lines and culture conditions: A human pancreatic cancer cell line PANC1 and human colon cancer cell line HCT116 were obtained from National Centre for Cell Science (NCCS), Pune, India. The PANC1 cells were sub-cultured in Dulbecco's Modified Eagle's Medium (DMEM) supplemented with 10% FBS at 5% C02 and 37° C. The HCT116 cells were sub-cultured in McCoy's 5A media supplemented with 10% FBS at 5% CO2 and 37° C. […] The cells were allowed to attach 70% to the surface prior to treatment. […] Suspensions were aspirated 10 times before treatment. Cells treated with vehicle control were used as a control. Cell viability assay: PANC1 and HCT116 cells ([…] cells/ml) were seeded in 96-well plates and exposed to different individual-drug treated groups with varying concentrations (0, 20, 40, 60, 80, 100, 120, 140, 160, 180 and 200 μM) for a period of 24 hours. The individual-treated groups include Group I: 5 Fluorouracil (5FU)-treated PANC1 and HCT116 cells; Group II: MET-treated PANC1 and HCT116 cells; Group III: EGCG-treated PANC1 and HCT116 cells and Group IV: 5FU+[…] PANC1 and HCT116 cells.
# [3] = system: human breast cancer (MDA-MB-453) cells; test: MTT cell viability assay, MDA-MB-453; format: cell-based; details: 24 hours
# Protocol: Cell lines and culture conditions: A human breast cancer cell line MDA-MB-453 and human bone cancer cell line SaoS2 were obtained from National Centre for Cell Science (NCCS), Pune, India. The MDA-MB-453 cells were sub-cultured in Dulbecco's Modified Eagle's Medium (DMEM) supplemented with 10% FBS at 5% CO2 and 37° C. The SaoS2 cells were sub-cultured in McCoy's 5A media supplemented with 10% FBS at 5% CO2 and 37° C. […] The cells were allowed to attach 70% to the surface prior to treatment. […] Suspensions were aspirated 10 times before treatment. Cells treated with vehicle control were used as a control. Cell viability assay: MDA-MB-453 and SaoS2 cells (5×10^3 cells/ml) were seeded in 96-well plates and exposed to different individual-drug treated groups with varying concentrations (0, 20, 40, 60, 80, 100, 120, 140, 160, 180 and 200 μM) for a period of 24 hours.
SMILES,intracellular ROS levels (DCF-DA fluorescence intensity) [1],mRNA expression levels of BCL2 (U87MG glioma cells),mRNA expression levels of Caspase-9 (U87MG glioma cells),mRNA transcript levels of Nrf-2 (U87MG glioma cells),mRNA expression levels of BCL2 (C6 glioma cells),mRNA expression levels of Caspase-9 (C6 glioma cells),mRNA transcript levels of Nrf-2 (C6 glioma cells),"cell viability (MTT), in words [2]","cell viability (MTT), in words [3]",mRNA transcripts of the antioxidant genes (SOD and CAT) (U87MG glioma cells),mRNA transcripts of the antioxidant genes (SOD and CAT) (C6 glioma cells)
"CN(C)C(=N)N=C(N)N.Cl [MET, 3-(diaminomethylidene)-1,1-dimethylguanidine; hydrochloride]",did not show much effect on ROS levels,not found to be statistically significant,not found to be statistically significant,did not have any significant effect,not found to be statistically significant,not found to be statistically significant,did not have any significant effect,reduction in cell viability in a dose-dependent fashion,reduction in cell viability in a dose-dependent fashion,–,–
"O=C(O[C@@H]1Cc2c(O)cc(O)cc2O[C@@H]1c1cc(O)c(O)c(O)c1)c1cc(O)c(O)c(O)c1 [EGCG, [(2R,3R)-5,7-dihydroxy-2-(3,4,5-trihydroxyphenyl)-3,4-dihydro-2H-chromen-3-yl] 3,4,5-trihydroxybenzoate]",increased significantly,not found to be statistically significant,not found to be statistically significant,did not have any significant effect,not found to be statistically significant,not found to be statistically significant,did not have any significant effect,reduction in cell viability in a dose-dependent fashion,reduction in cell viability in a dose-dependent fashion,significant up-regulation,significant up-regulation
